Reference: patent US20260200888A1, “BIO-BASED COMPOUNDS” (SPECIALTY OPERATIONS FRANCE, priority 2022, published 2026)

Legend:
[1] = in Cyrene and NBP
[2] = Solubility of mono-fungicides in the solvent of Example 6 and prior art solvents (Example 7); conditions: 24° C.; for Maximum solubility (w/v) in Cyrene: solvent Cyrene; for Maximum solubility (w/v) in Example 6: solvent Example 6; for Maximum solubility (w/v) in Rhodiasolv ADMA10: solvent Rhodiasolv ADMA10
[3] = Solubility of mono-fungicides in the solvent of Example 1 and prior art solvents (Example 2); conditions: for Maximum solubility (w/v) in Cyrene: solvent Cyrene; for Maximum solubility (w/v) in Example 1: solvent Example 1; for Maximum solubility (w/v) in Rhodiasolv ADMA10: solvent Rhodiasolv ADMA10; for Maximum solubility (w/v) in Rhodiasolv PolarClean: solvent Rhodiasolv PolarClean
Excerpt: The concentration of the fungicides (w/v) was increased in 5% intervals and the highest still soluble concentration is stated in the table below.

[4] = 24° C., 5% intervals, highest still soluble concentration

Compound: CCCCNP(N)(N)=S [NBPT, N-(n-butyl)thiophosphoric triamide]
- Viscosity of the resulting NBPT solution ([1]; even at 35% (w/v)): highly viscous
- Appearance of the NBPT solution ([1]; even at low concentrations): yellow discoloration

Compound: CO/C=C(/C(=O)OC)c1ccccc1Oc1cc(Oc2ccccc2C#N)ncn1 [Azoxystrobin]
- Maximum solubility (w/v) in Cyrene [2]: 20% (w/v)
- Maximum solubility (w/v) in Example 6 [2]: 10% (w/v)
- Maximum solubility (w/v) in Rhodiasolv ADMA10 [2]: 2% (w/v)
- Maximum solubility (w/v) in Cyrene ([3]; 0° C. after seeding): 20% (20%) % (w/v)
- Maximum solubility (w/v) in Cyrene ([3]; 24° C.): 20% (20%) % (w/v)
- Maximum solubility (w/v) in Example 1 ([3]; 0° C. after seeding): 10% (10%) % (w/v)
- Maximum solubility (w/v) in Example 1 [3, 4]: 10% (10%) % (w/v)
- Maximum solubility (w/v) in Rhodiasolv ADMA10 ([3]; 0° C. after seeding): (2%) % (w/v)
- Maximum solubility (w/v) in Rhodiasolv ADMA10 ([3]; 24° C.): 2% (w/v)
- Maximum solubility (w/v) in Rhodiasolv PolarClean ([3]; 0° C. after seeding): (5%) % (w/v)
- Maximum solubility (w/v) in Rhodiasolv PolarClean ([3]; 24° C.): 15% (w/v)

Compound: CC(C)(C)C(O)(CCc1ccc(Cl)cc1)Cn1cncn1 (stereo not drawn) [Tebuconazole]
- Maximum solubility (w/v) in Rhodiasolv ADMA10 ([3]; 0° C. after seeding): (20%) % (w/v)
- Maximum solubility (w/v) in Rhodiasolv PolarClean ([3]; 0° C. after seeding): (30%) % (w/v)

Compound: CC(C)N(C)S(=O)(=O)NC(=O)c1cc(-n2c(=O)cc(C(F)(F)F)n(C)c2=O)c(F)cc1Cl [Saflufenacil]
- Maximum solubility (w/v) in Cyrene [2]: 10% (w/v)
- Maximum solubility (w/v) in Example 6 [2]: >10% (w/v)
- Maximum solubility (w/v) in Rhodiasolv ADMA10 [2]: 10% (w/v)
- Maximum solubility (w/v) in Cyrene ([3]; 0° C. after seeding): 10% (10%) % (w/v)
- Maximum solubility (w/v) in Cyrene ([3]; 24° C.): 10% (10%) % (w/v)
- Maximum solubility (w/v) in Example 1 ([3]; 0° C. after seeding): 20% (20%) % (w/v)
- Maximum solubility (w/v) in Example 1 [3, 4]: 20% (20%) % (w/v)
- Maximum solubility (w/v) in Rhodiasolv ADMA10 ([3]; 0° C. after seeding): (10%) % (w/v)
- Maximum solubility (w/v) in Rhodiasolv ADMA10 ([3]; 24° C.): 10% (w/v)
- Maximum solubility (w/v) in Rhodiasolv PolarClean ([3]; 0° C. after seeding): (25%) % (w/v)
- Maximum solubility (w/v) in Rhodiasolv PolarClean ([3]; 24° C.): 25% (w/v)

Compound: COC(=O)N(OC)c1ccccc1COc1ccn(-c2ccc(Cl)cc2)n1 [Pyraclostrobin]
- Maximum solubility (w/v) in Cyrene [2]: 45% (w/v)
- Maximum solubility (w/v) in Example 6 [2]: >25% (w/v)
- Maximum solubility (w/v) in Rhodiasolv ADMA10 [2]: 15% (w/v)
- Maximum solubility (w/v) in Cyrene ([3]; 0° C. after seeding): 45% (45%) % (w/v)
- Maximum solubility (w/v) in Cyrene ([3]; 24° C.): 45% (45%) % (w/v)
- Maximum solubility (w/v) in Example 1 ([3]; 0° C. after seeding): 45% (45%) % (w/v)
- Maximum solubility (w/v) in Example 1 [3, 4]: 45% (45%) % (w/v)
- Maximum solubility (w/v) in Rhodiasolv ADMA10 ([3]; 0° C. after seeding): (10) % (w/v)
- Maximum solubility (w/v) in Rhodiasolv ADMA10 ([3]; 24° C.): 15% (w/v)
- Maximum solubility (w/v) in Rhodiasolv PolarClean ([3]; 0° C. after seeding): (45%) % (w/v)
- Maximum solubility (w/v) in Rhodiasolv PolarClean ([3]; 24° C.): 45% (w/v)

Compound: OC(Cc1ccccc1Cl)(Cn1nc[nH]c1=S)C1(Cl)CC1 (stereo not drawn) [Prothioconazole]
- Maximum solubility (w/v) in Cyrene [2]: 10% (w/v)
- Maximum solubility (w/v) in Example 6 [2]: >30% (w/v)
- Maximum solubility (w/v) in Rhodiasolv ADMA10 [2]: 40% (w/v)
- Maximum solubility (w/v) in Cyrene ([3]; 0° C. after seeding): 10% (10%) % (w/v)
- Maximum solubility (w/v) in Cyrene ([3]; 24° C.): 10% (10%) % (w/v)
- Maximum solubility (w/v) in Example 1 ([3]; 0° C. after seeding): 50% (50%) % (w/v)
- Maximum solubility (w/v) in Example 1 [3, 4]: 50% (50%) % (w/v)
- Maximum solubility (w/v) in Rhodiasolv ADMA10 ([3]; 0° C. after seeding): (40%) % (w/v)
- Maximum solubility (w/v) in Rhodiasolv ADMA10 ([3]; 24° C.): 40% (w/v)
- Maximum solubility (w/v) in Rhodiasolv PolarClean ([3]; 0° C. after seeding): (50%) % (w/v)
- Maximum solubility (w/v) in Rhodiasolv PolarClean ([3]; 24° C.): 50% (w/v)
